Data set [1] can be described thus: logP determination by HPLC on a reverse-phase column (EEC Directive 79/831 Annex V.A8). Format: physicochemical. The settings on record: pH 2.3, reverse-phase column (C 18), 43° C.; for chromatographic logP: reverse-phase HPLC column (C 18). Here is the method: The logP values given were determined in accordance with EEC Directive 79/831 Annex V.A8 by HPLC (High Performance Liquid Chromatography) on a reverse-phase column (C 18). Temperature: 43° C. Mobile phases for the determination in the acidic range (pH 2.3): 0.1% aqueous phosphoric acid, acetonitrile; linear gradient from 10% acetonitrile to 90% acetonitrile. Calibration was carried out using unbranched alkan-2-ones (having 3 to 16 carbon atoms) with known logP values (determination of logP values by retention times using linear interpolation between two successive alkanones).

The test system of data set [2] is Botrytis cinerea. Briefly: Botrytis test (bean)/protective. The settings on record: 48 h, protective, application rate 500 g/ha, evaluation 2 days after inoculation, read-out: Efficacy in %. Format: in vivo. Here is the method: [table] To produce a suitable preparation of active compound, 1 part by weight of active compound was mixed with the stated amounts of solvent and emulsifier, and the concentrate was diluted with water to the desired concentration. To test for protective activity, young plants are sprayed with the preparation of active compound at the stated application rate. After the spray coating has dried on, 2 small pieces of agar colonized by Botrytis cinerea are placed onto each leaf. The inoculated plants are placed in a dark chamber at about 20° C. and 100% relative atmospheric humidity. The size of the infected areas on the leaves is evaluated 2 days after the inoculation. 0% means an efficacy which corresponds to that of the control, whereas an efficacy of 100% means that no infection is observed.

A word on the chromatographic logP: it is lipophilicity estimated from chromatographic retention. Take `CC(C)CC(C)c1ccccc1NC(=O)c1ccsc1I` (stereo not shown) [Example 1, N-[2-(1,3-dimethylbutyl)phenyl]-2-iodothiophene-3-carboxamide]: the chromatographic logP in data set [1] worked out at 4.14.

For `CC(C)CC(C)c1ccccc1NC(=O)c1ccoc1I` (stereo not shown) [Example 2, N-[2-(1,3-dimethylbutyl)phenyl]-2-iodo-3-furamide], the chromatographic logP in data set [1] stood at 3.88.

The term logP denotes the decadic logarithm of the partition coefficient of the neutral form, usually between octanol and water. Lower therefore signals a more hydrophilic compound. Take `O=C(Nc1ccccc1-c1ccc(Br)cc1)c1ccoc1I` [Example 3]: the logP in data set [1] was 3.72.

`O=C(Nc1ccccc1-c1ccc(Br)c(F)c1)c1ccoc1I` [Example 4]: in data set [1], the logP amounted to 3.58.

Molecule `C=C(CC(C)C)c1ccccc1NC(=O)c1ccsc1I` [Example 5] showed a logP in data set [1] of 4.57.

Molecule `CC(CC(C)(C)C)c1ccccc1NC(=O)c1ccsc1I` (stereo not shown) [Example 6] registered a lipophilicity (logP) in data set [1] of 4.42.

In turn, `CC(CC(C)(C)C)c1ccccc1NC(=O)c1ccoc1I` (stereo not shown) [Example 7] returned a logP in data set [1] of 4.16.

Regarding `O=C(Nc1ccccc1-c1ccc(Cl)cc1)c1ccsc1I` [Example 8], the lipophilicity (logP) in data set [1] amounted to 3.93.

Molecule `O=C(Nc1ccccc1-c1ccc(Cl)c(F)c1)c1ccsc1I` [Example 9] yielded a logP in data set [1] of 3.82.

Turning to `O=C(Nc1ccccc1-c1ccc(Cl)c(Cl)c1)c1ccoc1I` [Example 10], the logP in data set [1] is recorded as 3.89.

Turning to `O=C(Nc1ccccc1-c1ccc(Cl)cc1)c1ccoc1I` [Example 11], the logP in data set [1] turned out to be 3.62.

`O=C(Nc1ccccc1-c1ccc(Cl)c(Cl)c1)c1ccsc1I` [Example 13] showed a log partition coefficient (logP) in data set [1] of 4.11.

The molecule `C=C(CC(C)(C)C)c1ccccc1NC(=O)c1ccsc1I` [Example 14] yielded a logP in data set [1] of 4.78.

Molecule `C=C(CC(C)(C)C)c1ccccc1NC(=O)c1ccoc1I` [Example 15] came in with a logP in data set [1] of 4.49.

In data set [1], `CC(C[Si](C)(C)C)c1ccccc1NC(=O)c1ccoc1I` (stereo not shown) [Example 16] registered a lipophilicity (logP) of 4.45.

In data set [1], `CC(C[Si](C)(C)C)c1ccccc1NC(=O)c1ccsc1I` (stereo not shown) [Example 17] displayed a lipophilicity (logP) of 4.69.

For the molecule `C[Si](C)(C)CCc1ccccc1NC(=O)c1ccsc1I` [Example 18], in data set [1], the lipophilicity (logP) was found to be 4.43.

As for `O=C(Nc1ccccc1-c1ccc(C(F)(F)F)cc1Cl)c1ccsc1I` [Example 19], the logP in data set [1] was found to be 4.18.

`CC(C)(C)CCc1ccccc1NC(=O)c1ccsc1I` [Example 20] came in with a lipophilicity (logP) in data set [1] of 4.17.

In data set [1], `O=C(Nc1ccccc1-c1ccc(Br)cc1Cl)c1ccsc1I` [Example 21] returned a lipophilicity (logP) of 4.28.

The molecule `O=C(Nc1ccccc1-c1ccc(Br)c(F)c1)c1ccsc1I` [Example 22] had a logP in data set [1] of 3.89.

Turning to `O=C(Nc1ccccc1-c1cccc(Cl)c1Cl)c1ccsc1I` [Example 23], in data set [1], the logP stood at 4.01.

In turn, `O=C(Nc1ccc(F)cc1-c1ccc(Cl)c(Cl)c1)c1ccsc1I` [Example 24] had a lipophilicity (logP) in data set [1] of 4.13.

`Cc1ccc(-c2ccccc2NC(=O)c2ccsc2I)cc1F` [Example 25]: the logP in data set [1] is listed as 3.89.

`O=C(Nc1ccccc1-c1ccc(C(F)(F)F)cc1)c1ccsc1I` [Example 26]: in data set [1], the logP is 3.89.

`CC(C)CC(C)c1ccccc1NC(=O)c1ccsc1Br` (stereo not shown) [Example 27] registered a logP in data set [1] of 4.24.

In data set [1], `CC(CC(C)(C)C)c1ccccc1NC(=O)c1ccsc1Br` (stereo not shown) [Example 28] displayed a logP of 4.51.

Consider `O=C(Nc1ccccc1-c1ccc(Cl)cc1)c1ccsc1Br` [Example 29], for which the logP in data set [1] is given as 3.99.

In data set [1], `O=C(Nc1ccccc1-c1ccc(Cl)c(Cl)c1)c1ccsc1Br` [Example 30] showed a log partition coefficient (logP) of 4.25.

In data set [1], `O=C(Nc1ccccc1-c1ccc(Cl)c(F)c1)c1ccsc1Br` [Example 31] gave a log partition coefficient (logP) of 3.91.

For `O=C(Nc1ccccc1-c1ccc(Br)c(Cl)c1)c1ccsc1I` [Example 32], in data set [1], the log partition coefficient (logP) is on record as 4.21.

On to `O=C(Nc1ccccc1-c1cccc(Cl)c1F)c1ccsc1I` [Example 33], for which the log partition coefficient (logP) in data set [1] came to 3.67.

As to `O=C(Nc1ccncc1-c1ccc(Cl)c(Cl)c1)c1ccsc1I` [Example 34], the lipophilicity (logP) in data set [1] is recorded as 2.20.

Molecule `O=C(Nc1ccc(F)cc1-c1cccc(Cl)c1F)c1ccsc1I` [Example 35] yielded a logP in data set [1] of 3.69.

For `CC(C[Si](C)(C)C)c1cc(F)ccc1NC(=O)c1ccsc1I` (stereo not shown) [Example 36], the logP in data set [1] was 4.67.

In data set [1], `CC(C)(C)CCc1cc(F)ccc1NC(=O)c1ccsc1I` [Example 37] had a logP of 4.16.

Consider `O=C(Nc1ccccc1-c1ccc(F)c(Cl)c1)c1ccsc1I` [Example 38], for which the logP in data set [1] worked out at 3.79.

In data set [1], `CC1CC(C)(C)c2cccc(NC(=O)c3ccsc3I)c21` (stereo not shown) [Example 39] showed a logP of 4.09.

`CON=Cc1ccc(-c2ccccc2NC(=O)c2ccsc2I)cc1F` [Example 40] yielded a logP in data set [1] of 3.79.

`CC(C)CC(C)c1cc(F)ccc1NC(=O)c1ccsc1I` (stereo not shown) [Example 41] displayed a lipophilicity (logP) in data set [1] of 4.17.

In data set [1], `CC(C)(C)CCc1sccc1NC(=O)c1ccsc1I` [Example 42] showed a logP of 4.44.

Regarding `CC(C)CC(C)c1sccc1NC(=O)c1ccsc1I` (stereo not shown) [Example 43], the logP in data set [1] amounted to 4.22.

In data set [1], `CC(C)(C)CCc1cc(F)ccc1NC(=O)c1ccsc1Br` [Example 44] showed a logP of 4.30.

In turn, `CC(C)(C)CCc1ccccc1NC(=O)c1ccsc1Br` [Example 45] had a logP in data set [1] of 4.30.

For `CC(C)CC(C)c1ccccc1NC(=O)c1ccsc1I` (stereo not shown) [drawing 222], the pest or weed control at 500 g/ha in data set [2] came to 100%.

`CC(C)CC(C)c1ccccc1NC(=O)c1ccoc1I` (stereo not shown) [drawing 223]: in data set [2], the pest or weed control at 500 g/ha is 99%.

As to `CC(CC(C)(C)C)c1ccccc1NC(=O)c1ccoc1I` (stereo not shown) [drawing 224], the pest or weed control at 500 g/ha in data set [2] came to 100%.

As to `CC(CC(C)(C)C)c1ccccc1NC(=O)c1ccsc1I` (stereo not shown) [drawing 225], the pest or weed control at 500 g/ha in data set [2] came out at 100%.

With `C[Si](C)(C)CCc1ccccc1NC(=O)c1ccsc1I` [drawing 226], the pest or weed control at 500 g/ha in data set [2] came to 100%.

In the case of `O=C(Nc1ccccc1-c1ccc(C(F)(F)F)cc1Cl)c1ccsc1I` [drawing 227], in data set [2], the pest or weed control at 500 g/ha was 100%.

In the case of `O=C(Nc1ccncc1-c1ccc(Cl)c(Cl)c1)c1ccsc1I` [drawing 228], in data set [2], the pest or weed control at 500 g/ha was determined as 100%.

Take `O=C(Nc1ccccc1-c1ccc(Br)cc1Cl)c1ccsc1I` [drawing 229]: the pest or weed control at 500 g/ha in data set [2] worked out at 100%.

For `O=C(Nc1ccccc1-c1ccc(Br)c(F)c1)c1ccsc1I` [drawing 230], the pest or weed control at 500 g/ha in data set [2] was 100%.

Take `O=C(Nc1ccccc1-c1ccc(Br)c(Cl)c1)c1ccsc1I` [drawing 231]: in data set [2], the pest or weed control at 500 g/ha is 100%.

Turning to `O=C(Nc1ccccc1-c1cccc(Cl)c1Cl)c1ccsc1I` [drawing 232], the pest or weed control at 500 g/ha in data set [2] is 100%.

For `O=C(Nc1ccccc1-c1cccc(Cl)c1F)c1ccsc1I` [drawing 233], in data set [2], the pest or weed control at 500 g/ha was found to be 100%.

In the case of `O=C(Nc1ccc(F)cc1-c1cccc(Cl)c1F)c1ccsc1I` [drawing 234], the pest or weed control at 500 g/ha in data set [2] is 100%.

For `CC(C)(C)CCc1cc(F)ccc1NC(=O)c1ccsc1I` [drawing 235], the pest or weed control at 500 g/ha in data set [2] stood at 100%.

`O=C(Nc1ccccc1-c1ccc(Cl)cc1)c1ccoc1I` [drawing 236]: the pest or weed control at 500 g/ha in data set [2] turned out to be 100%.

As to `O=C(Nc1ccccc1-c1ccc(Br)cc1)c1ccoc1I` [drawing 237], in data set [2], the pest or weed control at 500 g/ha stood at 100%.

`O=C(Nc1ccccc1-c1ccc(Cl)c(Cl)c1)c1ccoc1I` [drawing 238]: the pest or weed control at 500 g/ha in data set [2] was 100%.

For the origin of these results see US7745483B2, “2-Halofuryl-thienyl-3-carboxamides” (Bayer CropScience AG, priority 2004, dated 2010).
